From patent US20250114374A1, “BCL-2 INHIBITORS” (Newave Pharmaceutical Inc., priority 2021, published 2025)

System: RS4; 11 with G101V mutation
Assay: In vitro anti-proliferation assay (ATPlite luminescence) in BCL-2-dependent ALL cell line RS4;11 with G101V mutation
Format: cell-based
Details: cellular anti-proliferative IC50, about 72 hours, medium with 10% FBS, ATPlite; read-out: RS411-G101V IC50
Experimental: Cell antiproliferation was assayed by PerkinElmer ATPlite™ Luminescence Assay System. Briefly, the various test cancer cell lines were plated at a density of about 1×10^4 cells per well in Costar 96-well plates, and were incubated with different concentrations of compounds for about 72 hours in medium supplemented with 10% FBS. One lyophilized substrate solution vial was then reconstituted by adding 5 mL of substrate buffer solution, and was agitated gently until the solution was homogeneous. About 50 μL of mammalian cell lysis solution was added to 100 μL of cell suspension per well of a microplate, and the plate was shaken for about five minutes in an orbital shaker at ˜700 rpm. This procedure was used to lyse the cells and to stabilize the ATP. Next, 50 μL substrate solution was added to the wells and microplate was shaken for five minutes in an orbital shaker at ˜700 rpm. Finally, the luminescence was measured by a PerkinElmer TopCount® Microplate Scintillation Counter. Such assays, carried out with a range of doses of test compounds, allowed the determination of the cellular anti-antiproliferative IC50 of the compounds of the present invention.
The following table lists the IC50 values of another study for certain compounds of the invention.

Row | SMILES | IC50 [nM]
1 | COc1cc(CN2CCN([C@@H]3CC4(CCN(c5ccc(C(=O)NS(=O)(=O)c6ccc(NCC7CCC(C)(O)CC7)c([N+](=O)[O-])c6)c(N6c7cc8cc[nH]c8nc7O[C@H]7COCC[C@@H]76)c5)CC4)[C@@H]3C)[C@@H](c3ccccc3OC(C)C)C2)cnc1N1CCOCC1 (stereo partly drawn) [Example 120, 2-[(3R,8S)-2,5-dioxa-9,15,17-triazatetracyclo[8.7.0.0^{3,8}.0^{12,16}]heptadeca-1(10),11,13,16-tetraen-9-yl]-4-[(1S,2R)-2-[(2S)-2-(2-isopropoxyphenyl)-4-{[5-methoxy-6-(morpholin-4-yl)pyridin-3-yl]methyl}piperazin-1-yl]-1-methyl-7-azaspiro[3.5]nonan-7-yl]-N-[3-nitro-4-({[(1r,4r)-4-hydroxy-4-methylcyclohexyl]methyl}amino)benzenesulfonyl]benzamide] | 147
2 | COc1cc(CN2CCN([C@@H]3CC4(CCN(c5ccc(C(=O)NS(=O)(=O)c6ccc(NCC7CCC(C)(O)CC7)c([N+](=O)[O-])c6)c(N6c7cc8cc[nH]c8nc7O[C@H]7COCC[C@@H]76)c5)CC4)[C@H]3C)[C@@H](c3ccccc3OC(C)C)C2)cnc1N1CCOCC1 (stereo partly drawn) [Example 121, 2-[(3R,8S)-2,5-dioxa-9,15,17-triazatetracyclo[8.7.0.0^{3,8}.0^{12,16}]heptadeca-1(10),11,13,16-tetraen-9-yl]-4-[(1R,2R)-2-[(2S)-2-(2-isopropoxyphenyl)-4-{[5-methoxy-6-(morpholin-4-yl)pyridin-3-yl]methyl}piperazin-1-yl]-1-methyl-7-azaspiro[3.5]nonan-7-yl]-N-[3-nitro-4-({[(1r,4r)-4-hydroxy-4-methylcyclohexyl]methyl}amino)benzenesulfonyl]benzamide] | 47.9
3 | COc1cc(CN2CCN(C3CC4(CCN(c5ccc(C(=O)NS(=O)(=O)c6ccc(NCC7CCC(C)(O)CC7)c([N+](=O)[O-])c6)c(N6c7cc8c(F)c[nH]c8nc7O[C@H]7COCC[C@@H]76)c5)CC4)C3)[C@@H](c3ccccc3OC(C)C)C2)cnc1N1CCOCC1 (stereo partly drawn) [Example 122, 2-[(3R,8S)-13-fluoro-2,5-dioxa-9,15,17-triazatetracyclo[8.7.0.0^{3,8}.0^{12,16}]heptadeca-1(10),11,13,16-tetraen-9-yl]-4-{2-[(2S)-2-(2-isopropoxyphenyl)-4-{[5-methoxy-6-(morpholin-4-yl)pyridin-3-yl]methyl}piperazin-1-yl]-7-azaspiro[3.5]nonan-7-yl}-N-[3-nitro-4-({[(1r,4r)-4-hydroxy-4-methylcyclohexyl]methyl}amino)benzenesulfonyl]benzamide] | 10
4 | COc1cc(CN2CCN(C3CC4(CCN(c5ccc(C(=O)NS(=O)(=O)c6ccc(NCC7CCC(C)(O)CC7)c([N+](=O)[O-])c6)c(N6c7cc8cc[nH]c8nc7O[C@H]7COCC[C@@H]76)c5)CC4)C3)[C@H](c3ccccc3C)C2)cnc1N1CCOCC1 (stereo partly drawn) [Example 123, N-((4-((((1r,4r)-4-hydroxy-4-methylcyclohexyl)methyl)amino)-3-nitrophenyl)sulfonyl)-4-(2-((R)-4-((5-methoxy-6-morpholinopyridin-3-yl)methyl)-2-(o-tolyl)piperazin-1-yl)-7-azaspiro[3.5]nonan-7-yl)-2-((5aS,9aR)-6,7,9,9a-tetrahydro-1H-pyrano[3,4-b]pyrrolo[3′,2′:5,6]pyrido[3,2-e][1,4]oxazin-5(5aH)-yl)benzamide] | 2.9
5 | COc1cc(CN2CCN(C3CC4(CCN(c5ccc(C(=O)NS(=O)(=O)c6ccc(NCC7CCC(C)(O)CC7)c([N+](=O)[O-])c6)c(N6c7cc8cc[nH]c8nc7O[C@H]7COCC[C@@H]76)c5)CC4)C3)[C@H](c3ccccc3C)C2)cnc1N1CCOCC1 (stereo partly drawn) [Example 124, N-((4-((((1r,4r)-4-hydroxy-4-methylcyclohexyl)methyl)amino)-3-nitrophenyl)sulfonyl)-4-(2-((R)-4-((5-(methoxy-d3)-6-morpholinopyridin-3-yl)methyl)-2-(o-tolyl)piperazin-1-yl)-7-azaspiro[3.5]nonan-7-yl)-2-((5aS,9aR)-6,7,9,9a-tetrahydro-1H-pyrano[3,4-b]pyrrolo[3′,2′:5,6]pyrido[3,2-e][1,4]oxazin-5(5aH)-yl)benzamide] | 2
6 | Cc1ccccc1[C@@H]1CN(Cc2cnc3c(c2)OCCO3)CCN1C1CC2(CCN(c3ccc(C(=O)NS(=O)(=O)c4ccc(NCC5CCC(C)(O)CC5)c([N+](=O)[O-])c4)c(N4c5cc6cc[nH]c6nc5O[C@H]5COCC[C@@H]54)c3)CC2)C1 (stereo partly drawn) [Example 125, 2-[(3R,8S)-2,5-dioxa-9,15,17-triazatetracyclo[8.7.0.0^{3,8}.0^{12,16}]heptadeca-1(10),11,13,16-tetraen-9-yl]-4-{2-[(2R)-4-{2H,3H-[1,4]dioxino[2,3-b]pyridin-7-ylmethyl}-2-(2-methylphenyl)piperazin-1-yl]-7-azaspiro[3.5]nonan-7-yl}-N-[3-nitro-4-({[(1r,4r)-4-hydroxy-4-methylcyclohexyl]methyl}amino)benzenesulfonyl]benzamide] | 13.9
7 | COc1cc(CN2CCN(C3CC4(CCN(c5ccc(C(=O)NS(=O)(=O)c6ccc(NCC7CCC(C)(O)CC7)c([N+](=O)[O-])c6)c(N6c7cc8cc[nH]c8nc7O[C@H]7COCC[C@@H]76)c5)CC4)C3)[C@@H](c3ccccc3OC(C)C)C2)cnc1N1CCOC[C@@H]1C (stereo partly drawn) [Example 126, N-((4-((((1r,4r)-4-hydroxy-4-methylcyclohexyl)methyl)amino)-3-nitrophenyl)sulfonyl)-4-(2-((S)-2-(2-isopropoxyphenyl)-4-((5-methoxy-6-((S)-3-methylmorpholino)pyridin-3-yl)methyl)piperazin-1-yl)-7-azaspiro[3.5]nonan-7-yl)-2-((5aS,9aR)-6,7,9,9a-tetrahydro-1H-pyrano[3,4-b]pyrrolo[3′,2′:5,6]pyrido[3,2-e][1,4]oxazin-5(5aH)-yl)benzamide] | 11.7
8 | CC(C)Oc1ccccc1[C@H]1CN(Cc2ccnc3c2OCC(C)(C)O3)CCN1C1CC2(CCN(c3ccc(C(=O)NS(=O)(=O)c4ccc(NCC5CCC(C)(O)CC5)c([N+](=O)[O-])c4)c(N4c5cc6cc[nH]c6nc5O[C@H]5COCC[C@@H]54)c3)CC2)C1 (stereo partly drawn) [Example 127, 4-(2-((S)-4-((3,3-dimethyl-2,3-dihydro-[1,4]dioxino[2,3-b]pyridin-8-yl)methyl)-2-(2-isopropoxyphenyl)piperazin-1-yl)-7-azaspiro[3.5]nonan-7-yl)-N-((4-((((1r,4r)-4-hydroxy-4-methylcyclohexyl)methyl)amino)-3-nitrophenyl)sulfonyl)-2-((5aS,9aR)-6,7,9,9a-tetrahydro-1H-pyrano[3,4-b]pyrrolo[3′,2′:5,6]pyrido[3,2-e][1,4]oxazin-5(5aH)-yl)benzamide] | 8.1
9 | CC(C)Oc1ccccc1[C@H]1CN(Cc2ccc(N3CCOCC3)cn2)CCN1C1CC2(CCN(c3ccc(C(=O)NS(=O)(=O)c4ccc(NCC5CCC(C)(O)CC5)c([N+](=O)[O-])c4)c(N4c5cc6cc[nH]c6nc5O[C@H]5COCC[C@@H]54)c3)CC2)C1 (stereo partly drawn) [Example 128, N-((4-((((1r,4r)-4-hydroxy-4-methylcyclohexyl)methyl)amino)-3-nitrophenyl)sulfonyl)-4-(2-((S)-2-(2-isopropoxyphenyl)-4-((5-morpholinopyridin-2-yl)methyl)piperazin-1-yl)-7-azaspiro[3.5]nonan-7-yl)-2-((5aS,9aR)-6,7,9,9a-tetrahydro-1H-pyrano[3,4-b]pyrrolo[3′,2′:5,6]pyrido[3,2-e][1,4]oxazin-5(5aH)-yl)benzamide] | 22.2
